Laboratory results from patent US10407465B2, “Peptides enhancing neuronal outgrowth and application thereof” (Schweitzer Biotech Company Ltd., priority 2014, dated 2019).
Structures can show the parent of a compound that is named as a salt. No end group written: not given here.

What was measured:
[1] = tested on: D-Galactose induced aging model rats; assay: Water maze learning, D-galactose induced aging; assay type: in vivo, Sprague-Dawley rats; settings: D-galactose 150 mg/kg/day i.p. alone for 9 weeks
Description: (§1) A plastic circular pool 183 cm in diameter was filled with water (25±2° C.). A circular platform was placed at a specific location from the edge of the pool and submerged below the water surface. Water was made cloudy by adding toxic-free dye. Distinctive visual cues were set on the wall. For spatial learning, animals were subjected to 3 trials per day, with one trial early in the morning, one trial at noon, and another in the late afternoon. The training procedure lasted 4 days, and a total of 12 trials were given. The rats were positioned at different starting points spaced equally around the perimeter of the pool in random order. They had 60 seconds to swim in the pool. If a rat could not find the platform, it was guided to the platform and was allowed to remain there for 20 seconds. The time each animal took to reach the platform was recorded as the escape latency. A probe trial of 60 seconds was given on Day 5 to test their memory retention. The rats were placed in the pool with the platform removed, and the time they spent in each quadrant (Quadrants 1, 2, 3, and 4) was recorded. The longer a rat stayed in the target quadrant (quadrant 4), the better memory the rat had. At the end of the experiment, the rats were subjected to visible platform learning. […] The time the rats found the platform was recorded. […]

[2] = tested on: MPTP-mouse model of Parkinson's disease; assay: Rotarod performance test; assay type: in vivo, C57BL/6 male mice; settings: MPTP 30 mg/kg i.p. alone; negative control 778.5 seconds; p<0.01
Description: C57BL/6 male mice at the age of 5 weeks were randomly divided into 3 groups and intraperitoneally injected with PBS (negative control), MPTP (30 mg/kg)(MPTP group), and C6 peptide (10.7 μg/kg) and MPTP (30 mg/kg)(C6+MPTP group), respectively. The injection volume was calculated based on the body weight of each mouse everyday. Mice of the C6+MPTP group were injected C6 peptide for 3 weeks prior to injection of C6 peptide and MPTP for 1 week, and then subjected to rotarod performance test.
Rotarod performance tests were conducted to measure the coordination of mice. Mice were placed on the rod and ran at 2 rpm constant speed for 2 minutes in order to adapt to the rod. After that, rod was started to accelerate to 20 rpm (within 5 minutes) and sustained for 15 minutes. The time (latency) at which each mouse fell off the rod was recorded.

[3] = tested on: Sco-induced amnesia animal model; assay: Water maze learning, scopolamine-induced memory impairment; assay type: in vivo, Sprague-Dawley rats; settings: scopolamine 1.5 mg/kg/day i.p. alone; vs negative control; P<0.01
Description: as §1

[4] = tested on: Sco-induced amnesia animal model; assay: Step-down passive avoidance test, scopolamine-induced memory deficits; assay type: in vivo, Sprague-Dawley rats; settings: scopolamine 1.5 mg/kg/day alone; 1 day after footshock; vs control
Description: Animals were familiar to the instrument 24 hours before training. Next day rats placed on the elevated platform situated in the center of the floor of the passive avoidance test box and the latency to stepping down recorded. On the third day of the experiment immediately after stepping down, animals received mild electric shock (3V, 3 seconds duration, D.C.) through the grid floor and then returned to their home cages. On the following day (as 24 hours retention interval) rats placed on the platform again while no electric shock was given to them. Latency to step down recorded. If the rat remained on the platform for the 5 minutes, it assigned a maximum score of 300 seconds.
Rats were randomly divided into negative control group, Scopolamine only group, (C5+Sco) group and (C6+Sco) group, and rats in the four groups were injected with vehicle (negative control group and scopolamine only group), C5 peptide (54 μg/kg/day, C5+Sco group), and C6 peptide (5.4 μg/kg/day, C6+Sco group), respectively, for 14 consecutive days. After that, rats in the 4 groups were intraperitoneally injected with vehicle (negative control group), vehicle and scopolamine (1.5 mg/kg/day)(scopolamine only group), C5 peptide (54 μg/kg/day) and scopolamine (1.5 mg/kg/day) (C5+Sco group), and C6 peptide (5.4 μg/kg/day) and scopolamine (1.5 mg/kg/day) (C6+Sco group), respectively, for 7 consecutive days. […]

[5] = tested on: Sco-induced amnesia animal model; assay: Novel object recognition learning, scopolamine-induced memory deficits; assay type: in vivo, Sprague-Dawley rats; settings: scopolamine 1.5 mg/kg/day alone; vs time on left object; P>0.05
Description: During familiarization, rats were allowed to explore 2 identical objects in an open field box (90×70×60 cm) for 5 min. The criteria used for exploration were a distance less than 1.5 cm between the rat and the object or direct contact with the object. During the retention test given 3 hours and 24 hours later, the rats were returned to the same box, but one of the familiar objects was replaced with a novel object of approximately the same size. The time that each rat spent exploring the 2 objects during a 5-min period was recorded. The rats placed in the open field box without any objects for 5 min were assigned to the non-trained group.
Both C5 peptide and C6 peptide ameliorate scopolamine-induced memory deficits. […] Then, behavioral experiments were conducted, and the injection program with scopolamine continued through the experimentation. The injection volume was 1 μL/g of body weight. The scopolamine injection was performed 30 minutes before behavioral experiments every morning, and the C5 peptide or C6 peptide injection was conducted once daily at 5:00 PM 1 day prior. […] Three (3) hours, 8 hours and 24 hours after, a novel object (NO) replaced the RO.

[6] = tested on: embryonic hippocampal primary neurons; assay: Cell viability (MTT) assay for neurotoxicity; assay type: cell-based, Sprague-Dawley rats; settings: 10^−3 M, 10^−6 M, 10^−9 M, 10^−12M for 24 hours from 1 DIV; p>0.05
Description: At the first day in vitro (1 DIV), embryonic hippocampal primary neurons were treated with 10^−3 M, 10^−6 M, 10^−9 M, 10^−12M C5 peptide or C6 peptide, respectively, for 24 hours, followed by cell viability assay.
Cell viability was evaluated by an MTT (3-(4,5-cimethylthiazol-2-yl)-2,5-diphenyl tetrazolium bromide) assay. Cells were incubated with an MTT reagent (0.5 mg/mL, Sigma-Aldrich, USA) at 37° C. for 1 hour. The MTT solution was removed, and DMSO was added to the wells shaken at room temperature for 1 hour. The amount of MTT formazan product was quantified by measuring its absorbance at 570 and 630 nm by using an ELISA plate reader (SpectraMax M2 Microplate Readers, Molecular Devices, Sunnyvale, Calif., USA).

[7] = tested on: embryonic hippocampal primary neurons; assay: Neuronal outgrowth assay with immunocytochemistry (anti-Tau, anti-MAP2, DAPI); assay type: cell-based, Sprague-Dawley rats; settings: for lengths of the first and second order axon branches: p<0.01 or p<0.05; for axon outgrowth: L-form peptide 10^−9 M, treatment at 3 DIV for 3 days, vs PBS negative control
Description: In order to culture embryonic hippocampal primary neurons, pregnant Sprague-Dawley rats were purchased from the National Laboratory Center in Taiwan (Taipei, Taiwan). The hippocampal tissue from the embryos of the Sprague-Dawley rats (embryonic day 19, E19) was dissociated with enzyme and plated onto poly-L-lysine-coated coverslips with a minimal essential medium containing 5% calf serum, 5% horse serum, and 50 ng/mL insulin-transferrin-selenite (Sigma-Aldrich, St. Louis, Mo., USA). After plating, the medium was replaced with 2% of B27-neurobasal medium (Invitrogen, Carlsbad, Calif., USA) containing 0.5 mM glutamine and […]. Embryonic hippocampal primary neurons were incubated at 37° C., 5% CO2 for further experimental treatment.
Primary hippocampal neuron cultures at 3 days in vitro (at DIV3) were treated with 10^−9 M, 10^−12M, 10^−15 M C5 peptide (L-form), 10^−9 M, 10^−12M, 10^−15 M C6 peptide (L-form), 10^−9 M P1 peptide (L-form), 10^−9 M P2 peptide (L-form), 10^−9 M P3 peptide (L-form), 10^−9 M P4 peptide (L-form), 10^−9 M P5 peptide (L-form), 10^−9 M P6 peptide (L-form), 10^−9 M C5 peptide (D-form), and 10^−12 C6 peptide (D-form), respectively, for 3 days, followed by immunocytochemistry. Embryonic hippocampal primary neurons of negative control were treated with PBS. Each treatment condition was run in 3 replicates.
Cultured hippocampal neurons were fixed with 4% paraformaldehyde and permeablized with 0.1% Triton X-100 at room temperature (RT). Cultures were then incubated in the primary rabbit anti-Tau antibody (a selective marker for axons, Millipore, Mass., USA) and the primary mouse anti-MAP2 antibody (microtubule-associated protein-2, which is a selective marker for dendrites, Millipore) for 1 hour at RT. After wash, cells were incubated with Alexa Fluor® 488 goat anti-rabbit secondary antibody (green fluorescence, Abcam Plc., UK) and Alexa Fluor® 594 goat anti-mouse secondary antibody (red fluorescence, Abcam Plc.) for 1 hour at RT. Then, nuclei were stained with 4′,6-diamidino-2-phenylindole (DAPI, blue fluorescence, Vector Laboratories, USA). After that, coverslips were mounted on the cells, and images were obtained by using an Axio Observer D1 microscope (Zeiss, Jena, Germany) and analyzed by ImageJ software (Inage Processing and Analysis in Java, National Institutes of Health, USA). Neuronal process longer than 10 μm is defined as a neurite.
An axon extending from the cell body of a neuron is defined as a first order axon branch; an axon extending from a first order axon branch is defined as a second order axon branch, and an axon extending from a second order axon branch is defined as a third order axon branch, et cetera (FIG. 3A). Only axons longer than 10 μm are counted.

| Compound | lengths of the first and second order axon branches ([7]; 10^−9 M, vs negative control) | axon outgrowth [7] | also measured |
| --- | --- | --- | --- |
| O=C[C@H](O)[C@@H](O)[C@@H](O)[C@H](O)CO [D-Galactose, D-(+)-galactose] | – | – | average escape latency in finding the hidden platform [1]: 53.06 s |
| CN1CC=C(c2ccccc2)CC1 [MPTP, 1-methyl-4-phenyl-1,2,3,6-tetrahydropyridine] | – | – | average latency to fall [2]: 159.8 s |
| CN1[C@@H]2C[C@@H](OC(=O)[C@H](CO)c3ccccc3)C[C@H]1[C@@H]1O[C@@H]12 [Sco, Scopolamine hydrochloride] | – | – | escape latency in finding the hidden platform [3]: longer escape latency; stepping down (jumping error number) [4]: stepped down more; exploratory preference for the novel object (NO) [5]: no exploratory preference for the NO |
| NAIPQ [C5 peptide, NAIPQ] | – | – | neurotoxic effect (cell viability, MTT) [6]: no significant neurotoxic effect |
| NFEPQ (Petide for enhancing neuronal outgrowth) [P1 peptide] | longer | enhanced axon outgrowth | – |
| NIKPQ (Petide for enhancing neuronal outgrowth) [P3 peptide] | longer | enhanced axon outgrowth | – |
| NLMPQ (Petide for enhancing neuronal outgrowth) [P4 peptide] | longer | enhanced axon outgrowth | – |
| NMYPQ (Petide for enhancing neuronal outgrowth) [P2 peptide] | longer | enhanced axon outgrowth | – |
| NPSPQ [C6 peptide, NPSPQ] | – | – | neurotoxic effect (cell viability, MTT) [6]: no significant neurotoxic effect |
| NVAPQ (Petide for enhancing neuronal outgrowth) [P5 peptide] | longer | enhanced axon outgrowth | – |
| NWLPQ (Petide for enhancing neuronal outgrowth) [P6 peptide] | longer | enhanced axon outgrowth | average number of second order axon branches ([7]; 10^−9 M, negative control 2.5, p<0.01): 4.2; lengths of the third order axon branches ([7]; 10^−9 M, vs negative control, p<0.05): significantly longer |
